Converted amounts (≈) assume the structure as drawn.
Experiments:
MCF7 = assay: Antiproliferative activity against human MCF7 cells assessed as growth inhibition after 48 hrs by MTT assay; assay type: functional, cell-based; conditions: MCF7, 48 h
HT-29 = assay: Antiproliferative activity against human HT-29 cells assessed as growth inhibition after 48 hrs by MTT assay; assay type: functional, cell-based; conditions: HT-29, 48 h
HUVEC = assay: Antiproliferative activity against human HUVEC cells assessed as growth inhibition after 48 hrs by MTT assay; assay type: cell-based
A549 [1] = assay: Antiproliferative activity against human A549 cells assessed as growth inhibition after 48 hrs by MTT assay; assay type: functional, cell-based; conditions: A549, 48 h
A549 [2] = assay: Effect on cell cycle distribution in human A549 cells assessed as accumulation at G1 phase at 20 ug/ml after 24 hrs by propidium iodide staining based flow cytometry method (reference value: 53.24%); assay type: functional
A549 [3] = assay: Effect on cell cycle distribution in human A549 cells assessed as accumulation at G2 phase at 20 ug/ml after 24 hrs by propidium iodide staining based flow cytometry method (reference value: 8%); assay type: functional
A549 [4] = assay: Effect on cell cycle distribution in human A549 cells assessed as accumulation at S phase at 20 ug/ml after 24 hrs by propidium iodide staining based flow cytometry method (reference value: 38.76%); assay type: functional
A549 [5] = assay: Effect on cell cycle distribution in human A549 cells assessed as accumulation at […] phase at 20 ug/ml after 24 hrs by propidium iodide staining based flow cytometry method (reference value: 1.96%); assay type: functional
A549 [6] = assay: Induction of ROS generation in human A549 cells at 20 ug/ml after 24 hrs by FACS-flow cytometry method (reference value: 20.51); assay type: functional
A549 [7] = assay: Induction of ROS generation in human A549 cells assessed as fold change at 20 ug/ml after 24 hrs by FACS-flow cytometry method relative to control; assay type: functional

Row | Compound | IC50 (MCF7) | IC50 (HT-29) | IC50 (HUVEC) | IC50 (A549 [1]) | Activity (A549 [2]) | Activity (A549 [3]) | Activity (A549 [4]) | Activity (A549 [5]) | Flu intensity (A549 [6]) | fold change (FC) (A549 [7])
1 | COC1=Cc2ccc3cc(O)ccc3c2C(=O)C1=O | 18.5 µg/mL (≈ 72.7 µM) | 25 µg/mL (≈ 98.4 µM) | 48.3 µg/mL (≈ 190 µM) | 19.7 µg/mL (≈ 77.6 µM) | 63.22% | 6.47% | 30.31% | 2% | 136 | 6
2 | COC1=C(c2c(O)ccc3c2ccc2cc(OC)c(O)c(OC)c23)c2ccc3cc(O)ccc3c2C(=O)C1=O | 12.6 µg/mL (≈ 24.2 µM) | 22.7 µg/mL (≈ 43.4 µM) | 33.5 µg/mL (≈ 64.1 µM) | 22.6 µg/mL (≈ 43.3 µM) | 69.4% | 8% | 22.6% | 1.95% | 256.68 | 10
3 | COc1cc2ccc3c(OC)c(O)ccc3c2c(OC)c1O | > 100 µg/mL | > 100 µg/mL | > 100 µg/mL | > 100 µg/mL |  |  |  |  |  | 
4 | COc1cc(O)c2c(c1)C(=O)c1cc(C)cc(O)c1C2=O [PHYSCION] | > 100 µg/mL | > 100 µg/mL | > 100 µg/mL | > 100 µg/mL |  |  |  |  |  | 
5 | Cc1ccc2c(c1)C(=O)c1ccccc1C2=O [TECTOQUINONE] | > 100 µg/mL | > 100 µg/mL | > 100 µg/mL | > 100 µg/mL |  |  |  |  |  | 
6 | COc1cc(C(=O)O)ccc1O [VANILLIC ACID] | > 100 µg/mL | > 100 µg/mL | > 100 µg/mL | > 100 µg/mL |  |  |  |  |  | 

Reference: ChEMBL document CHEMBL3792325, “Two novel phenanthraquinones with anti-cancer activity isolated from Bletilla striata” (Bioorg Med Chem Lett, 2016)
